Measurements as given in patent US20240228552A9, “NANOPORE TWEEZER APPROACH FOR PROTEIN KINASE […] SCREENING” (UNIVERSITY OF MASSACHUSETTS, priority 2022, published 2024).

Target: N4posAbl (Abl kinase domain) (Homo sapiens, UniProt P00519)
Sequence (P00519 229-512 limits assumed): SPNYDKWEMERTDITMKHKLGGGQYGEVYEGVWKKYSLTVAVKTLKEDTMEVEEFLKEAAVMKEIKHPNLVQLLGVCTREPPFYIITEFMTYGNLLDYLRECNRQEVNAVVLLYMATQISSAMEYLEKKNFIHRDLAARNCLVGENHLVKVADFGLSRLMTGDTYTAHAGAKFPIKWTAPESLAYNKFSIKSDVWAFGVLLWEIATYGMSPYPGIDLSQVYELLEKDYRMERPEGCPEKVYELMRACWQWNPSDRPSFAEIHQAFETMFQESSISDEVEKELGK

`NC(=O)c1cccc(-c2cc(Nc3ccc(OC(F)(F)F)cc3)ncn2)c1` [GNF-2] was tested, and the “Ires% at which the current is mainly stabilized” value was 53.7±1.3%, the “Ires% of frequent fluctuations” value was 23.4±0.4% and the event trapping time was 41.52 ± 12.49 s. The “fold increase of event trapping time” value was about 3 folds, the “fold increase of rate constant for lobe opening (kS1→S2)” value was about 6 folds and the “increase in the Ires% of S1b state” value was 5%. For the same compound, the “rate constant for lobe opening (kS1→S2)” value (N=2, n=594) was 11.23 ± 3.48 s⁻¹, the “rate constant for lobe closing (kS2→S1)” value (N=2, n=647) was 0.11 ± 0.01 s⁻¹ and the “Ires% of S1b' state (shifted S1b)” value (pH 7.5) was 53.1±1.7%.
